Laboratory results published in US6566129B1, “Transformed cells useful for the control of pests” (University of Florida Research Foundation, Inc., priority 1999, dated 2003).
Square brackets hold non-standard residues; d marks the D form. Ends that are not written are not given here. Peptide text beside a SMILES is read from it.

Key:
Assay type in all cases: in vivo
Aedes aegypti larvae [1] = assay: Effect of TMOF and its analogue peptides on mosquito larvae (feeding, LD50); conditions: newly hatched larvae on autoclaved yeast 1 mg/ml, microtiter plates, 7 days
Text: TMOF can traverse the gut epithelium, enter the hemolymph and bind a gut receptor (Borovsky, D. and F. Mahmood (1995) “Feeding the mosquito Aedes aegypti with TMOF and its analogs; effect on trypsin biosynthesis and egg development,” Regulatory Peptides57:273-281; Borovsky, et al. (1994) “Characterization and localization of mosquito-gut receptors for trypsin modulating oostatic factor using complementary peptide immunochemistry” FASEB J. 8:350-355.). […] To find out if truncated TMOF peptides have an effect on larval growth and development, a series of peptides were synthesized and tested by feeding them to mosquito larvae at concentrations of 0 to 5.0 mg/ml (Table 3). Individual, newly hatched Aedes aegypti larvae were maintained in separate microtiter wells on a diet of autoclaved yeast (1 mg/ml). The diet was supplemented with TMOF peptides (Table 3). An identical number of larvae maintained on yeast served as a control. […] All control groups survived and larval growth and development was normal. Since larvae swallow only a small portion of the yeast particles that adsorbed the peptides, it is assumed that approximately 1 to 20 ng are taken orally at the high concentrations.

trypsin biosynthesis = assay: Effect of injected TMOF-R analogues on trypsin biosynthesis in Heliothis virescens (BApNA); conditions: 2nd instar larvae, 24 hours after injection
Experimental: Individual second instar larvae of H. virescens were injected with TMOF-R analogues (10 to 0.25 μg per larva) and maintained in separate plastic cups on artificial diet. Twenty-four hours after the injections 3 groups of larvae (3 per group) were assayed for trypsin biosynthesis using BApNA (trypsin specific substrate; Table 5).

Aedes aegypti larvae [2] = assay: Effect of feeding TMOF-R analogues on Aedes aegypti larvae (LC50); conditions: fed in microtiter plates with yeast particles for 5 to 6 days; read-out: LC50 (mM ± S.E.M.)
Experimental: TMOF analogues (5 to 8 amino acids in length, and polymers of these analogues) in which Arg was added at the C-terminus were evaluated to determine their effect on larval growth and development. A series of analogues were synthesized and tested by feeding them to mosquito larvae at concentrations of (0.5 to 5.0 mg/ml; Table 4). Concentrations of 2.0 to 0.065 mg/ml were used to feed mosquito larvae and calculate the Lethal Dose at 50% mortality (LD50; Table 4) of the TMOF analogues. […] In both cases larval death and trypsin biosynthesis inhibition was noted (Table 4 and 5). […] The advantage of using short analogues connected by Arg is that they can be digested in the gut into short TMOF analogues that can penetrate the midgut much faster than longer analogues.
Individual, newly hatched Aedes aegypti larvae were maintained in separate microtiter wells on a diet of autoclaved yeast (1 mg/ml). The diet was supplemented with TMOF analogues (Table 4). An identical number of larvae were maintained on yeast served as a control. […] All control groups survived and larval growth and development were normal. Larvae that were fed TMOF analogues had increased mortality, particularly when the larvae where fed the concentrations of the analogues higher than 2 mg/ml (Table 4).
Since larvae swallow only a small portion of the yeast particles that adsorbed the analogues it is assumed that approximately I to 20 ng are taken orally at the high concentrations. Using the various concentrations a lethal concentration that caused 50% mortality (LC50) for the mosquito larvae was calculated (Table 4). The results presented in Table 4 clearly indicate that the short TMOF-R analogues are very effective, especially the (DPAR)4 (SEQ ID NO. 61) polymer that is broken into 4 DPARs (SEQ ID NO. 60) in the gut.

Compound	LD50 mM ± S.E.M. (Aedes aegypti larvae [1]) [mM]	other results
C[C@H](NC(=O)[C@@H]1CCCN1C(=O)[C@H](CC(=O)O)NC(=O)[C@H](N)Cc1ccc(O)cc1)C(=O)N1CCC[C@H]1C(=O)O [(D)YDPAP] (H-[dY]DPAP-OH; N-terminus and C-terminus assumed)	0.56 ± 0.03	
N[C@H](Cc1ccc(O)cc1)C(=O)N[C@@H](CC(=O)O)C(=O)N1CCC[C@H]1C(=O)O [(D)YDP] (H-[dY]-Asp-Pro-OH; N-terminus and C-terminus assumed)	0.51 ± 0.05	
C[C@H](N)C(=O)N[C@@H](C)C(=O)N1CCC[C@H]1C(=O)O [AAP] (H-Ala-Ala-Pro-OH; N-terminus and C-terminus assumed)	1.08 ± 0.07	
C[C@H](N)C(=O)N[C@@H](CC(=O)O)C(=O)N1CCC[C@H]1C(=O)O [ADP] (H-Ala-Asp-Pro-OH; N-terminus and C-terminus assumed)	>6.6	
C[C@H](N)C(=O)N1CCC[C@H]1C(=O)N[C@@H](C)C(=O)O [APA] (H-Ala-Pro-Ala-OH; N-terminus and C-terminus assumed)	1.0 ± 0.07	
C[C@H](NC(=O)[C@H](C)NC(=O)[C@@H](N)CC(=O)O)C(=O)O [DAA] (H-Asp-Ala-Ala-OH; N-terminus and C-terminus assumed)	0.91 ± 0.06	
C[C@H](NC(=O)[C@@H]1CCCN1C(=O)[C@@H](N)CC(=O)O)C(=O)N[C@@H](CCCNC(=N)N)C(=O)O [DPAR] (H-DPAR-OH)		Inhibition (% ± S.E.M.) of trypsin biosynthesis (trypsin biosynthesis; 1 μg/injection): 17 ± 2%; Inhibition (% ± S.E.M.) of trypsin biosynthesis (trypsin biosynthesis; 10 μg/injection): 100%; LC50 (Aedes aegypti larvae [2]): 0.46 ± 0.014 mM
C[C@H](NC(=O)[C@@H]1CCCN1C(=O)[C@@H](N)CC(=O)O)C(=O)O [DPA] (H-Asp-Pro-Ala-OH)	0.4 ± 0.03	
N[C@@H](CC(=O)O)C(=O)N[C@@H](Cc1ccc(O)cc1)C(=O)N1CCC[C@H]1C(=O)O [DYP] (H-Asp-Tyr-Pro-OH; N-terminus and C-terminus assumed)	1.27 ± 0.17	
N[C@@H](CC(=O)O)C(=O)N[C@@H](Cc1ccc(O)cc1)C(=O)O [DY] (H-Asp-Tyr-OH; N-terminus and C-terminus assumed)	3.0 ± 0.8	
C[C@H](NC(=O)[C@@H](N)Cc1ccccc1)C(=O)N1CCC[C@H]1C(=O)O [FAP] (H-Phe-Ala-Pro-OH; N-terminus and C-terminus assumed)	3.8 ± 0.23	
N[C@@H](Cc1ccccc1)C(=O)N[C@@H](CC(=O)O)C(=O)N1CCC[C@H]1C(=O)O [FDP] (H-Phe-Asp-Pro-OH; N-terminus and C-terminus assumed)	1.98 ± 0.6	
N[C@@H](Cc1ccccc1)C(=O)N[C@@H](CO)C(=O)N1CCC[C@H]1C(=O)O [FSP] (H-Phe-Ser-Pro-OH; N-terminus and C-terminus assumed)	2.3 ± 0.13	
C[C@H](NC(=O)[C@H](C)NC(=O)[C@@H]1CCCN1)C(=O)O [PAA] (H-Pro-Ala-Ala-OH; N-terminus and C-terminus assumed)	2.4 ± 0.34	
C[C@H](NC(=O)[C@@H]1CCCN1)C(=O)N1CCC[C@H]1C(=O)O [PAP] (H-Pro-Ala-Pro-OH; N-terminus and C-terminus assumed)	3.17 ± 0.14	
C[C@H](NC(=O)[C@@H]1CCCN1C(=O)[C@@H](CC(=O)O)NC(=O)[C@@H](N)Cc1ccc(O)cc1)C(=O)N1CCC[C@H]1C(=O)O [Y(D)DPAP] (H-Y[dD]PAP-OH; N-terminus and C-terminus assumed)	1.2 ± 0.3	
N[C@@H](Cc1ccc(O)cc1)C(=O)N[C@H](CC(=O)O)C(=O)N1CCC[C@H]1C(=O)O [Y(D)DP] (H-Tyr-[dD]-Pro-OH; N-terminus and C-terminus assumed)	0.28 ± 0.01	
C[C@H](NC(=O)[C@@H](N)Cc1ccc(O)cc1)C(=O)N1CCC[C@H]1C(=O)O [YAP] (H-Tyr-Ala-Pro-OH; N-terminus and C-terminus assumed)	2.3 ± 0.5	
C[C@H](NC(=O)[C@H](CC(=O)O)NC(=O)[C@@H](N)Cc1ccc(O)cc1)C(=O)O [YDA] (H-Tyr-Asp-Ala-OH; N-terminus and C-terminus assumed)	1.6 ± 0.13	
N[C@@H](Cc1ccc(O)cc1)C(=O)N[C@@H](CC(=O)O)C(=O)N[C@@H](Cc1ccccc1)C(=O)O [YDF] (H-Tyr-Asp-Phe-OH; N-terminus and C-terminus assumed)	0.97 ± 0.11	
N[C@@H](Cc1ccc(O)cc1)C(=O)N[C@@H](CC(=O)O)C(=O)NCC(=O)O [YDG] (H-Tyr-Asp-Gly-OH; N-terminus and C-terminus assumed)	0.95 ± 0.11	
N=C(N)NCCC[C@H](NC(=O)[C@@H]1CCCN1C(=O)[C@H](CC(=O)O)NC(=O)[C@@H](N)Cc1ccc(O)cc1)C(=O)O [YDPR] (H-YDPR-OH; N-terminus and C-terminus assumed)		LC50 (Aedes aegypti larvae [2]): 0.24 ± 0.026 mM
N[C@@H](Cc1ccc(O)cc1)C(=O)N[C@@H](CC(=O)O)C(=O)N1CCC[C@H]1C(=O)O [YDP] (H-Tyr-Asp-Pro-OH; N-terminus and C-terminus assumed)	2.3 ± 0.4	
N[C@@H](Cc1ccc(O)cc1)C(=O)N[C@@H](CC(=O)O)C(=O)O [YD] (H-Tyr-Asp-OH; N-terminus and C-terminus assumed)	1.24 ± 0.06	
N[C@@H](Cc1ccc(O)cc1)C(=O)N[C@@H](CO)C(=O)N[C@@H](Cc1ccccc1)C(=O)O [YSF] (H-Tyr-Ser-Phe-OH; N-terminus and C-terminus assumed)	1.08 ± 0.12	

Compound	LD50 mM ± S.E.M. (Aedes aegypti larvae [1]) [mM]	other results
ADPAP [ADPAP]	2.0 ± 0.36	
DPARDPARDPARDPAR [(DPAR)4]		Inhibition (% ± S.E.M.) of trypsin biosynthesis (trypsin biosynthesis; 0.5 μg/injection): 3 ± 0.3%; Inhibition (% ± S.E.M.) of trypsin biosynthesis (trypsin biosynthesis; 1 μg/injection): 35 ± 7%; Inhibition (% ± S.E.M.) of trypsin biosynthesis (trypsin biosynthesis; 10 μg/injection): 58 ± 36%; LC50 (Aedes aegypti larvae [2]): 0.048 ± 0.002 mM
FDPAP [FDPAP]	0.37 ± 0.15	
MPDYPPPPP [MPDYP5]	>3.0	
YAPAP [YAPAP]	0.54 ± 0.13	
YDAAP [YDAAP]	1.0 ± 0.18	
YDFAP [YDFAP]	0.74 ± 0.13	
YDLAP [YDLAP]	0.6 ± 0.05	
YDPAA [YDPAA]	1.6 ± 0.13	
YDPAF [YDPAF]	0.33 ± 0.2	
YDPAFR [YDPAFR]		Inhibition (% ± S.E.M.) of trypsin biosynthesis (trypsin biosynthesis; 10 μg/injection): 0 ± 0%; LC50 (Aedes aegypti larvae [2]): 0.15 ± 0.023 mM
YDPAL [YDPAL]	0.52 ± 0.03	
YDPAP [YDPAP, reference compound]	1.64 ± 0.03	
YDPAPPPPPP [YDPAP6, reference compound]	0.2 ± 0.02	Inhibition (% ± S.E.M.) of trypsin biosynthesis (trypsin biosynthesis; 0.25 μg/injection): 19.5 ± 0.7%; Inhibition (% ± S.E.M.) of trypsin biosynthesis (trypsin biosynthesis; 0.5 μg/injection): 11 ± 1%; Inhibition (% ± S.E.M.) of trypsin biosynthesis (trypsin biosynthesis; 1 μg/injection): 25 ± 2%; Inhibition (% ± S.E.M.) of trypsin biosynthesis (trypsin biosynthesis; 10 μg/injection): 56%; LC50 (Aedes aegypti larvae [2]): 0.2 ± 0.02 mM
YDPAPPPPPPR [YDPAP6R]		LC50 (Aedes aegypti larvae [2]): > 71.6 mM
YDPAPR [YDPAPR]		Inhibition (% ± S.E.M.) of trypsin biosynthesis (trypsin biosynthesis; 0.25 μg/injection): 11 ± 1%; Inhibition (% ± S.E.M.) of trypsin biosynthesis (trypsin biosynthesis; 0.5 μg/injection): 14 ± 1%; Inhibition (% ± S.E.M.) of trypsin biosynthesis (trypsin biosynthesis; 1 μg/injection): 31.5 ± 2%; Inhibition (% ± S.E.M.) of trypsin biosynthesis (trypsin biosynthesis; 10 μg/injection): 53 ± 25%; LC50 (Aedes aegypti larvae [2]): 0.24 ± 0.02 mM
YDPAR [YDPAR]		Inhibition (% ± S.E.M.) of trypsin biosynthesis (trypsin biosynthesis; 0.5 μg/injection): 1 ± 0.07%; Inhibition (% ± S.E.M.) of trypsin biosynthesis (trypsin biosynthesis; 1 μg/injection): 39 ± 2%; Inhibition (% ± S.E.M.) of trypsin biosynthesis (trypsin biosynthesis; 10 μg/injection): 33.5 ± 9%; LC50 (Aedes aegypti larvae [2]): 0.12 ± 0.07 mM
YDPFP [YDPFP]	1.7 ± 0.4	
YDPGP [YDPGP]	1.1 ± 0.18	
YDPLP [YDPLP]	1.5 ± 0.04	
YEPAP [YEPAP]	0.35 ± 0.02	
YFPAP [YFPAP]	0.64 ± 0.03	
YNPAP [YNPAP]	0.55 ± 0.03	
YSPAP [YSPAP]	1.4 ± 0.03	
